“Also recorded” adds a separate entry of the source.

Results on six compounds are retold here after US8173618B2, “Formulations for reducing neuronal degeneration” (University of Massachusetts, priority 2003, dated 2012).

For one data set, the system named is normal and ApoE−/− mice. Nature of the data set: TBAR analysis of brain oxidative damage in mice on dietary regimens. It counts as in vivo. Particulars: deficiency in vitamin E alone. The source says: Damage resulting from the generation of intracellular reactive oxygen species can also be quantified using a TBAR assay (Ohkawa et al., Anal. Biochem., 95:351-358, 1979). This method is used to determine cellular lipid hydroperoxides in cultured cells by thiobarbituric acid reaction. Lipid hydroperoxides break down to malondialdehyde and other aldehydes. These react with thiobarbituric acid in a mildly acidic environment, which results in formation of a chromophore. The resulting chromophore is measured by light absorption or fluorescence techniques.
After one month, total brain tissue was harvested and subjected to TBAR analyses as described in Wittaker et al. (1996, supra).
Additional mice received the deficient diet supplemented with DZA (0.4 g/kg total diet weight), SAM (80 mg/kg diet weight) and NAC (1 g/kg diet weight). Total brain tissue was harvested and analyzed for TBARs.

A further data set has as its system cortical neurons. As to the kind of experiment: Intracellular ROS by DCFD fluorescence in cortical neurons. The data set is classed as cell-based, mice. The conditions noted are these: folate-deficient medium two hours, 0.15 mg/ml vitamin E as alpha-tocopherol. As to the method: Intracellular reactive oxygen species (ROS) were monitored as described in […] et al., 1999 (J. Biol. Chem., 274:30322-30327). Briefly, cells were incubated for 30 minutes with dichloro-fluorescein diacetate (DCFD; acetoxymethyl ester; Molecular Probes, Inc., Eugene, Oreg.), which is used to detect intracellular peroxide levels. Incubation was followed by rinsing of cultures in serum-free medium and immediate capture of images using UV optics. Images were captured under epifluorescent and phase-contrast illumination using a DAGE CCL-72 cooled CCD camera via a Scion LG-3 frame grabber operated by NIH Image (see the Internet at rsb.info.nih.gov/nih-image). Images were then stored as PICT files on a Macintosh Power PC 7100AV for subsequent analysis. At least 100 cells in randomly-selected fields from duplicate cultures derived from multiple experiments were scored for fluorescent intensity using NIH Image analysis software. Representative background areas devoid of cells were similarly analyzed and subtracted from cell values to yield net densitometric values. All fields for each individual assay were illuminated, captured, and processed under identical settings. Corresponding phase-contrast images were obtained. Cell aggregates were excluded from the assays; only individual cells were quantified. Values were exported to Excel for statistical analyses using Student's t test. […]

The subject of data set [1] is differentiated SH-SY-5Y cells. Nature of the data set: Intracellular ROS by DCFD fluorescence in differentiated SH-SY-5Y cells. The data set is classed as cell-based, human. Particulars: for increase in ROS resulting from folate deprivation: simultaneously with folate deprivation; for increase in ROS: 20 μM Abeta25-35 two hours. As to the method: Cultured cells were used to test individual agents and formulations. In general, SH-SY-5Y human neuroblastoma cells were cultured in DMEM (Cellgro) containing 10% fetal bovine serum in 5% CO2.
For treatments with Abeta, differentiated cultures were transferred to medium without serum and treated for two hours with 20 μM Abeta25-35 (Sigma Chemical Co., St. Louis, Mo.). […] Louis, Mo.). In experiments calling for treatment of cell cultures with N-acetyl cysteine (NAC; NALC), cultures were treated with 10 mM NAC (Sigma Chemical Co., St. Louis, Mo.) after the culture was grown for two hours in serum-free medium.
Intracellular reactive oxygen species (ROS) were monitored as described in Ekinci et al., 1999 (J. Biol. Chem., 274:30322-30327). Briefly, cells were incubated for 30 minutes with dichloro-fluorescein diacetate (DCFD; acetoxymethyl ester; Molecular Probes, Inc., Eugene, Oreg.), which is used to detect intracellular peroxide levels. Incubation was followed by rinsing of cultures in serum-free medium and immediate capture of images using UV optics. Images were captured under epifluorescent and phase-contrast illumination using a DAGE CCL-72 cooled CCD camera via a Scion LG-3 frame grabber operated by NIH Image (see the Internet at rsb.info.nih.gov/nih-image). Images were then stored as PICT files on a Macintosh Power PC 7100AV for subsequent analysis. At least 100 cells in randomly-selected fields from duplicate cultures derived from multiple experiments were scored for fluorescent intensity using NIH Image analysis software. Representative background areas devoid of cells were similarly analyzed and subtracted from cell values to yield net densitometric values. All fields for each individual assay were illuminated, captured, and processed under identical settings. Corresponding phase-contrast images were obtained. Cell aggregates were excluded from the assays; only individual cells were quantified. Values were exported to Excel for statistical analyses using Student's t test.
For monitoring of intracellular peroxide concentrations as an index of ROS, cultures received 10 μl/ml DFCD (2′7′-dichlorofluorescein diacetate; Kodak) for 20 minutes. Cultures were then visualized under fluorescein UV optics (perikaryon; Ekinci and Shea, 1999, supra).

Data set [2] relates to SH-SY-5Y cells. Nature of the data set: HPLC analysis of glutathione and thiols in SH-SY-5Y cells. The conditions noted are these: NAC treatment in the absence of folate. The data set is classed as cell-based, human. As to the method: (§1) Glutathione levels were quantified in homogenates of SH-SY-5Y cells. Cultures were rinsed twice with Tris-buffered saline (TBS), scraped from the plate in a small volume of TBS and homogenized on ice. Medium was also utilized for analysis of HCY along with cellular lysates, since HCY is normally exported from cells. Homogenates (100 μl) were reduced by mixing with 50 μl of 100 μM N-acetylcysteine or with 30 μl of 30 μM cystamine (as an internal standard) and 10 μl of tri-carboxyethylphosphine (100 mg/ml in 0.05 M HCl). Samples were vortexed, incubated at room temperature for 30 minutes, then centrifuged at 10,000×g for 10 minutes. 80 μl of the resulting supernatant were combined with 160 μl of 2 M boric acid/4 mM EDTA (pH 10.5), followed by 80 μl of 1.0 mg/ml SBDF [7-fluorobenzo-2-oxa-1,3-diazole-4-sulfonate] in boric acid/EDTA buffer). Samples were mixed, incubated for 60 minutes at 60° C., equilibrated to reach temperature, and 50 μl of the sample was then injected into a Hewlett Packard model 1090 HPLC, which is used with a 1046A fluorescence detector and a Hewlett Packard 4.6×60 mm high-speed analytical column packed with 3 μM ODs (C18) Hypersil silica. The mobile phase consisted of methanol/0.2 M acetate buffer pH 4.0 (2/98 by volume). Glutathione concentrations were then determined by comparison of peak area ratios of glutathione to the internal standard N-acetylcysteine in the sample compared to peak areas obtained for a glutathione standard curve. Samples were derived from 3-4 normal and 3-4 ApoE−/− mice for each dietary condition, from ≧2 independent experiments (total n≧6 for each diet for both experiments).
NAC directly scavenges ROS and also provide a source of intracellular cysteine for synthesis of glutathione during conditions of oxidative stress. […] Differentiated SH-SY-5Y cells with and without NAC treatment were subjected to HPLC along with 50 μM each of multiple thiol standards (“Standards”) as indicated in FIGS. 18A to 18C.

For data set [3] the following is noted: reported; cited from earlier work.
Data set [4] deals with differentiated SH-SY-5Y cells. Nature of the data set: ATP levels in Abeta-treated SH-SY-5Y cells. It counts as cell-based, human. Particulars: 20 μM Abeta. As to the method: FIG. 11 is a bar graph showing the results of experiments examining apoptosis in which differentiated SH-SY-5Y cells cultured in the presence or absence of Abeta, with or without ALCAR for two hours, and assayed for ATP using spectrophotometric methods known in the art.
The effect of ALCAR on differentiated SH-SY-5Y cells treated with Abeta was examined. Cells were cultured in 20 μM Abeta in the presence and absence of ALCAR. Some cultures were pretreated with 50 μM ALCAR for 30 minutes. In these experiments, the ALCAR-containing medium was replaced with medium containing Abeta and no ALCAR then incubated for two hours before being assayed. Cultures were assayed for ROS, apoptosis, and ATP.

For data set [5], the system named is SH-SY-5Y cells. As to the kind of experiment: HPLC of homocysteine in SH-SY-5Y cell lysates and medium. It counts as cell-based, human. Particulars: 25 μM DZA during folate deprivation. As to the method: as §1
Medium was then decanted, cells were scraped from the plate and homogenized, and medium and cellular lysates, along with an aliquot of fresh medium that had not been in contact with cells, were subjected to HPLC analyses.

For data set [6], the system named is SH-SY-5Y cells. Nature of the data set: Homocysteine-induced apoptosis, meracyanine staining of externalized PS. The data set is classed as cell-based, human. As to the method:
FIG. 20 is a bar graph that depicts the results of experiments in which […] were treated with 250 μM homocysteine with or without 100 μM SAM, after which cultures were monitored for externalized PS via meracyanine staining as an indication of apoptosis. Values represent the mean (±standard error of the mean) in arbitrary densitometric units derived from densitometric analyses of 10-50 neurons from two cultures under each condition from two separate independent experiments.
Levels of externalized phosphatidylserine (PS) were used as a measure of apoptosis (Rimon et al., 1997, J. Neurosci. Res., 48:563-570). Briefly, cultures were subjected to treatments then rinsed with PBS and incubated with 10 μl/ml merocyanine (Upstate Biotech, Lake Placid, N.Y.), followed by examination under rhodamine optics (Ekinci et al, 1999, J. Biol. Chem., 274:30322-30327).
Homocysteine induces apoptosis in cultured cells. To investigate the effect of SAM on HC-induced apoptosis, 100 μM SAM and homocysteine were added to cultured SH-SY-5Y cells and apoptosis was monitored by meracyanine staining to detect the externalization of PS.

Where [7] appears, read: no folate + 25 μM DZA, two hours.

`Cc1c(C)c2c(c(C)c1O)CC[C@@](C)(CCC[C@H](C)CCC[C@H](C)CCCC(C)C)O2` [vitamin E, alpha-tocopherol]: the “ROS in brain (TBAR)” value in the data set with normal and ApoE−/− mice (ApoE−/− knockout mice) is recorded as “did increase ROS”; in the data set with normal and ApoE−/− mice (iron-fed normal mice) it was “did not increase ROS”. In addition, the “ROS generation during folate deprivation” value in the data set with cortical neurons is reported as “not prevented”. For the same compound, the “ROS induction by Abeta” value in data set [1] (additional experiments, vitamin E) was “prevented”. In data set [1] (single agent, control cells and cells exposed to Abeta, two hours), the ROS entry is “reduced ROS”. Further, the “ROS induced by Abeta” value is reported as “efficacy of vitamin E was markedly reduced; also recorded: but not vitamin E, quenched ROS” in data set [1] (vitamin E (0.15 ng/mL) applied 15 minutes after Abeta) and “approximately identical to that of control cells” in data set [1] (vitamin E (0.15 ng/mL) provided simultaneously with Abeta, two hours).
In the case of `CC(=O)N[C@@H](CS)C(=O)O` [NAC, N-acetyl cysteine], the “intracellular cysteine (HPLC)” value in the data set with SH-SY-5Y cells [2] is recorded as “marked increase”. Also, the “intracellular glutathione (HPLC)” value in the data set with SH-SY-5Y cells [2] is listed as “marked increase”. Besides, the “entry into the CNS” value in data set [3] was “reported to enter or have effects in the CNS”. Further, the “increase in ROS resulting from folate deprivation” value in data set [1] (1 mM NAC, two hours) is “prevented the increase in ROS”; in data set [1] (10 mM NAC, two hours), “prevented the increase in ROS”. The “ROS induced by Abeta” value in data set [1] (NAC (10 mM) applied 15 minutes after Abeta) was “quenched ROS”.
Turning to “Abeta: beta-amyloid fragment of the amyloid precursor protein; Abeta25-35 (Sigma) used at 20 μM (GSNKGAIIGLM; Amyloid-beta protein 42; UniProt P05067 696-706, looked up, fragment)”, the “cellular ATP” value in data set [4] is recorded as “reduced cellular ATP”. In addition, the “increase in ROS” value in data set [1] (folate-deprived cells) was 144±10%; in data set [1] (in the presence of folate), 34±4%.
Take `Nc1nccc2c1ncn2[C@@H]1O[C@H](CO)[C@@H](O)[C@H]1O` [DZA, 3-deazaadenosine]: the “attenuation of the increase in ROS from folate deprivation” value is reported as “approximately 50%” in data set [1] (25 μM DZA during folate deprivation) and “attenuated the increase in ROS by slightly more than half” in data set [1] (25 μM DZA simultaneously with folate deprivation). In addition, in data set [1] (setting [7]), the “ROS % increase vs. control” value amounted to 16%. Besides, the “ROS Mean ± SEM” value in data set [1] (setting [7]) is recorded as 8.8 ± 0.3. The “HCY formation and export” value with SH-SY-5Y cells [5] is “prevented HCY formation and export to a level below that observed in cultures receiving folate”.
Turning to `C[S+](CC[C@H](N)C(=O)O)C[C@H]1O[C@@H](n2cnc3c(N)ncnc32)[C@H](O)[C@@H]1O` (some centres unmarked) [SAM, S-adenosyl methionine], the “entry into the CNS” value in data set [3] is given as “reported to enter or have effects in the CNS”. The “increase in ROS generated by folate deprivation” value in data set [1] (100 μM SAM, two hours) was “attenuation of the increase in ROS; also recorded: reduced ROS levels to a greater extent than did incubation of cells in the presence of folate”. Further, the “homocysteine-induced PS externalization” value in the data set with SH-SY-5Y cells [6] (100 μM SAM, 2 hours) was “prevented PS externalization”. The “reduction of homocysteine-induced PS externalization” value with SH-SY-5Y cells [6] (100 μM SAM, 24 hours) is recorded as “approximately 50%”.
Take `N[C@@H](CCS)C(=O)O` [Homocysteine, homocysteine]: the “externalization of PS” value in the data set on SH-SY-5Y cells [6] (homocysteine, 2 and 24 hours) was “progressively induced externalization of PS”.
